Publication PMC10527105, “Chirality Matters: Fine-Tuning of Novel Monoamine Reuptake Inhibitors Selectivity through Manipulation of Stereochemistry” (Biomolecules, 2023)

How the values were obtained:
[1] = Compound brain levels after intraperitoneal injection; type: in vivo; settings: single intraperitoneal injection, 10 mg/kg, Sprague–Dawley rats
Procedure: Compound brain levels. For an in-depth description of the brain and blood at 7h, we refer to the protocol of Evotec (France, Study No. DMPK-2020-494) in the supplementary information file.

[2] = system: Schaffer collateral (SC)-CA1 synapses; assay: Ex vivo electrophysiology in hippocampal slices of aged rats; parameters: species or system Sprague–Dawley rats
Procedure: Animals. Male Sprague–Dawley rats (22–23 months old) were bred and kept in the Core Unit of Biomedical Research, Division of Laboratory Animal Science and Genetics, Medical University of Vienna. Rats were housed in groups of two in standard Makrolon cages filled with autoclaved woodchips (temperature: 22 ± 2 °C; humidity: 55 ± 5%; 12 h artificial light/12 h dark cycle: light on at 7:00 am). Tap water and food were provided ad libitum. The study was carried out according to the guidelines of the ethics committee at the Medical University of Vienna and was approved by the Federal Ministry of Education, Science, and Culture, Austria (BMBWF-66.009/235/V/3b/2018).
Hippocampal Slices Preparation. Acutely dissected hippocampal slices obtained from rat singles administered with vehicle or 10 mg/kg for 7h (1 h prior to brain extraction) were prepared as previously described, with slight modifications. Briefly, rats were anesthetized by 50 s isoflurane inhalation exposure, and (upon the absence of corneal reflexes), animals were decapitated using a high-precision, hardened, sharp-blade rodent guillotine (DCAP-M, World Precision Instruments, Inc., Sarasota, FL, USA). […]
Extracellular recording. […] An AxoClamp-2B amplifier, Digidata-1440 interface (Axon Instruments, Molecular Devices, Berkshire, UK), and pClamp-11 software (Molecular Devices, Berkshire, UK) were used for data acquisition and analysis. fEPSPs were recorded at 0.033 Hz. […]
Hippocampal synaptic potentiation was induced by delivering 4 trains of 20 pulses at 100 Hz (200 μs/pulse) with a 500 ms inter-train interval, a variant of the different forms of HFS protocol known to induce both post-tetanic potentiation (PTP) and long-term potentiation (LTP) in hippocampal CA3-CA1 hippocampal synapses in young rodents. Synaptic plasticity was assessed by quantifying the time course of changes in fEPSP slope (decaying phase) after applying the plasticity-inducing protocol, normalized to the average of all fEPSP slopes recorded during the preceding baseline recording period. […]

[O-][S@@+](Cc1cccs1)[C@@H](c1ccccc1)c1cccc(Br)c1 [Compound 7h, (S,S)-2-((((3-bromophenyl)(phenyl)methyl)sulfinyl)methyl)thiophene]
Cmax ([1]; rat, brain, ip): 478 ng/g
half-life ([1]; rat, brain, ip): 3 h
Tmax ([1]; rat, brain, ip, read-out: median Tmax in the brain): 1 h
detectable in brain post-administration [1]: up to 10 h

[O-][S@+](Cc1cccs1)[C@H](c1ccccc1)c1cccc(Br)c1 [Compound 8h, (R,R)-2-((((3-bromophenyl)(phenyl)methyl)sulfinyl)methyl)thiophene]
basal synaptic transmission: fEPSP slopes (I/O curves) vs vehicle ([2]; acute 10 mg/kg, aged rats (22–23 months), hippocampal slices): significantly enhanced
long-term potentiation (LTP) after HFS vs vehicle ([2]; acute treatment, aged rats, for at least 40 min after HFS): significantly increased and maintained LTP
early post-tetanic potentiation (PTP) responses vs vehicle ([2]; acute treatment, aged rats, right after HFS, Sidak post hoc p < 0.0001): statistically significant (p < 0.0001) enhancement
